In PubChem BioAssay (NCI):
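Tested at 5 concentrations; 48 h exposure; 96-well plates; endpoints linearly interpolated, else capped at highest concentration. TGI: concentration producing complete growth inhibition.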

Experiments:
Experiment in all cases: inhibition of tumour cell growth, NCI panel, 48 h
[1] = system: 786-0 renal
[2] = system: A498 renal
[3] = system: A549 NSCLC
[4] = system: ACHN renal
[5] = system: CAKI-1 renal
[6] = system: CCRF-CEM leukemia
[7] = system: COLO 205 colon
[8] = system: DLD-1 colon
[9] = system: DMS 114 small cell lung
[10] = system: EKVX NSCLC
[11] = system: HCC-2998 colon
[12] = system: HCT-15 colon
[13] = system: HL-60(TB) leukemia
[14] = system: HOP-62 NSCLC
[15] = system: HOP-92 NSCLC
[16] = system: HT29 colon
[17] = system: IGROV1 ovarian
[18] = system: K-562 leukemia
[19] = system: KM12 colon
[20] = system: KM20L2 colon
[21] = system: LOX IMVI melanoma
[22] = system: LXFL 529 NSCLC
[23] = system: M14 melanoma
[24] = system: MALME-3M melanoma
[25] = system: MOLT-4 leukemia
[26] = system: NCI-H226 lung
[27] = system: NCI-H23 lung
[28] = system: NCI-H460 lung
[29] = system: NCI-H522 lung
[30] = system: OVCAR-3 ovarian
[31] = system: OVCAR-4 ovarian
[32] = system: OVCAR-5 ovarian
[33] = system: OVCAR-8 ovarian
[34] = system: RPMI-8226 leukemia
[35] = system: RXF 393 renal
[36] = system: RXF-631 renal
[37] = system: SF-268 CNS
[38] = system: SF-295 CNS
[39] = system: SF-539 CNS
[40] = system: SK-MEL-2 melanoma
[41] = system: SK-MEL-28 melanoma
[42] = system: SK-MEL-5 melanoma
[43] = system: SK-OV-3 ovarian
[44] = system: SN12C renal
[45] = system: SNB-75 CNS
[46] = system: SNB-78 CNS
[47] = system: SW-620 colon
[48] = system: TK-10 renal
[49] = system: U251 CNS
[50] = system: UACC-257 melanoma
[51] = system: UACC-62 melanoma
[52] = system: UO-31 renal
[53] = system: XF 498 CNS
[54] = system: DMS 273 small cell lung
[55] = system: SNB-19 CNS

O=C1O[C@@H](c2ccccc2)C[C@H]1CN1CCOCC1
TGI [1]: > 100 µM
TGI [2]: > 100 µM
TGI [3]: > 100 µM
TGI [4]: > 100 µM
TGI [5]: 41.3 µM
TGI [6]: > 100 µM
TGI [7]: > 100 µM
TGI [8]: > 100 µM
TGI [9]: > 100 µM
TGI [10]: > 100 µM
TGI [11]: > 100 µM
TGI [12]: > 100 µM
TGI [13]: > 100 µM
TGI [14]: > 100 µM
TGI [15]: > 100 µM
TGI [16]: > 100 µM
TGI [17]: > 100 µM
TGI [18]: > 100 µM
TGI [19]: > 100 µM
TGI [20]: > 100 µM
TGI [21]: > 100 µM
TGI [22]: > 100 µM
TGI [23]: > 100 µM
TGI [24]: > 100 µM
TGI [25]: > 100 µM
TGI [26]: > 100 µM
TGI [27]: 35.4 µM
TGI [28]: > 100 µM
TGI [29]: > 100 µM
TGI [30]: > 100 µM
TGI [31]: > 100 µM
TGI [32]: > 100 µM
TGI [33]: > 100 µM
TGI [34]: > 100 µM
TGI [35]: > 100 µM
TGI [36]: > 100 µM
TGI [37]: > 100 µM
TGI [38]: > 100 µM
TGI [39]: > 100 µM
TGI [40]: > 100 µM
TGI [41]: > 100 µM
TGI [42]: > 100 µM
TGI [43]: > 100 µM
TGI [44]: > 100 µM
TGI [45]: > 100 µM
TGI [46]: > 100 µM
TGI [47]: > 100 µM
TGI [48]: > 100 µM
TGI [49]: > 100 µM
TGI [50]: > 100 µM
TGI [51]: > 100 µM
TGI [52]: > 100 µM
TGI [53]: > 100 µM

c1ccc2c(c1)c1ccccc1c1n[se]nc21
TGI [1]: > 100 µM
TGI [2]: 67.1 µM
TGI [3]: > 100 µM
TGI [4]: > 100 µM
TGI [5]: > 100 µM
TGI [6]: > 100 µM
TGI [7]: > 100 µM
TGI [8]: > 100 µM
TGI [9]: > 100 µM
TGI [54]: > 100 µM
TGI [10]: > 100 µM
TGI [12]: > 100 µM
TGI [13]: > 100 µM
TGI [16]: > 100 µM
TGI [17]: > 100 µM
TGI [18]: > 100 µM
TGI [19]: > 100 µM
TGI [20]: > 100 µM
TGI [21]: > 100 µM
TGI [22]: 48.6 µM
TGI [23]: > 100 µM
TGI [24]: > 100 µM
TGI [25]: > 100 µM
TGI [27]: > 100 µM
TGI [28]: > 100 µM
TGI [29]: > 100 µM
TGI [31]: > 100 µM
TGI [32]: > 100 µM
TGI [33]: > 100 µM
TGI [34]: > 100 µM
TGI [35]: > 100 µM
TGI [36]: > 100 µM
TGI [37]: > 100 µM
TGI [38]: > 100 µM
TGI [39]: 92.2 µM
TGI [40]: > 100 µM
TGI [41]: > 100 µM
TGI [42]: > 100 µM
TGI [43]: 64.3 µM
TGI [44]: > 100 µM
TGI [55]: > 100 µM
TGI [45]: 59 µM
TGI [46]: > 100 µM
TGI [47]: > 100 µM
TGI [48]: > 100 µM
TGI [49]: > 100 µM
TGI [50]: > 100 µM
TGI [51]: > 100 µM
TGI [52]: > 100 µM
TGI [53]: 77.2 µM
